{"source": "patent US20240082260A1", "about": "“INHIBITOR OF PROTEIN KINASE D FOR USE IN PREVENTION OR TREATMENT OF HYPERLIPIDEMIA” (priority 2021, published 2024)", "key": {"PKD2": {"biological_target": "T1, PKD2 (Homo sapiens, UniProt Q9BZL6)", "T1 construct": "purchased Abcam ab60875", "T1 sequence (Q9BZL6 1-878)": "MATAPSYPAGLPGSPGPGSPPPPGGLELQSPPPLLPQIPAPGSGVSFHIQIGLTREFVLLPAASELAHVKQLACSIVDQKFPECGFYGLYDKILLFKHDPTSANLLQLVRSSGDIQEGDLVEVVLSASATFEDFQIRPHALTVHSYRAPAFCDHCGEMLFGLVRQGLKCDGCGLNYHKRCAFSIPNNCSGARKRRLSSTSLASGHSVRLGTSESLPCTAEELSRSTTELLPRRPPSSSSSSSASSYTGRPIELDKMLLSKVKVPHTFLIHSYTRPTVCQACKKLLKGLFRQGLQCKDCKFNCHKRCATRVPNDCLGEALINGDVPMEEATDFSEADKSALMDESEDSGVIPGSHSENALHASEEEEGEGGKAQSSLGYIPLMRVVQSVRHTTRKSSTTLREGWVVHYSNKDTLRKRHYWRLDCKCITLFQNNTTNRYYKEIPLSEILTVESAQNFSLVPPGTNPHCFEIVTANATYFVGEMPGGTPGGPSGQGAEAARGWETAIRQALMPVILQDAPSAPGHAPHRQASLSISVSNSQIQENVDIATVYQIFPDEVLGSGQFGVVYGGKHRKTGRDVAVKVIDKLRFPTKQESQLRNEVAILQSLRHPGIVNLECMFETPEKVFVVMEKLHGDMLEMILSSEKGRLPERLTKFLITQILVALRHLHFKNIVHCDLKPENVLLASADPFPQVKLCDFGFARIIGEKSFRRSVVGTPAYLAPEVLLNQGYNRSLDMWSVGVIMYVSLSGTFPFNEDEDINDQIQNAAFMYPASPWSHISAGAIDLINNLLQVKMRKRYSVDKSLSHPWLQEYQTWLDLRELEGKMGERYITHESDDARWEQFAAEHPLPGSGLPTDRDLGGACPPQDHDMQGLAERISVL", "experiment": "In-vitro kinase assay: PKD2 phosphorylation of APOA4", "assay_type": "biochemical", "conditions": "recombinant human PKD2 and APOA4, western blot, FIG. 5H", "protocol": "Recombinant human proteins used for the study, PKD2 and APOA4, were both purchased from Abcam. […] Then, western blot was performed and incubated with a primary antibody against the phosphorylated motif (RxxS/T*) (Cell Signaling)."}, "Caco2 cells": {"system": "Caco2 cells", "experiment": "Lipid transport (14C-fatty acid release) through Caco2 monolayer in transwell system", "assay_type": "cell-based, human", "conditions": "24 h", "protocol": "Lipid transport studies were assessed in Caco2 cells seeded in trans-wells. 1.5×10^5 cells were seeded into a 12-well cell culture insert of 1 μm pore size Trans-well and maintained in for 14 consecutive days with media change every two days. For the lipids uptake and release, the apical side of the membrane was loaded with radioactive ^14C-palmitic acid (0.2 μCi), oleic acid (1 mM), and taurocholic acid (2 mM) in DMEM high glucose 10% FBS. The basal medium contained DMEM high glucose 0.1% FBS. After 24 hours of incubation, cell lysates and the apical and basolateral medium was collected and the ^14C-palmitic acid was measured in a scintillation counter for aliquots of apical and basal medium and for cell lysate. The same protocol was used in Caco2 cells that were treated with CRT0066101 (3 and 5 μM) for 24 h (added together with the mentioned radioactive fatty acid cocktail).\nIn order to test the potential of PKD inhibitors to restrict lipid transport via epithelial monolayer, we employed Caco2 cells seeded into the Transwells system. Briefly, we plated 1.5×10^5 cells seeded into a 12-well cell culture inserts of 1-μm pore size Transwell and maintained in for 14 consecutive days with media change every 2 days. For the lipid uptake and release, the apical side of the membrane was loaded with radioactive 14C-palmitic acid (0.2 μCi), oleic acid (1 mM), and taurocholic acid (2 mM) in DMEM high glucose 10% FBS. The basal medium contained DMEM high glucose 0.1% FBS. After 24 h of incubation, cell lysates and the apical and basolateral medium were collected and the 14C-palmitic acid was measured in a scintillation counter for aliquots of apical and basal medium and for cell lysate. To assess the efficiency of different PKD inhibitors, Caco2 cells were treated with either CRT0066101 (5 μM), CID2011756 (20 μM), CID755673 (20 μM), 1-NM-PP1 (20 μM), or control solvent solution (DMSO) for 24 h (added together with the mentioned radioactive FA cocktail)."}, "male C57BL/6 mice on HFD": {"system": "male C57BL/6 mice on HFD", "experiment": "Oral PKD inhibitor in mice with pre-established obesity (rescue, treatment after 7 weeks of HFD)", "assay_type": "in vivo, mouse", "protocol": "Mice body weight development was closely monitored and reported here on a weekly basis when mice were on a specified diet. All experiments were performed in male mice. […] A glucose tolerance test (GTT) was performed after overnight fasting. Mice blood glucose was assessed before and 15, 30, 60, 90, and 120 minutes after intraperitoneal injection of glucose (2 g/kg). For the Insulin tolerance test (ITT), the same measurements were performed after 4 hours of fasting and intraperitoneal injection of 0.5 U/kg of recombinant insulin. For glucose measurements, one blood drop was drawn from the tail tip into a test strip and measured with a glucometer (Accu-Chek® Roche)."}, "PKD 1/2": {"system": "PKD 1/2", "conditions": "oral, dose 8 times higher than used here, cited from earlier work"}, "phosphorylated PKD2": {"system": "phosphorylated PKD2", "conditions": "oral 10 mg/kg once a day, HFD", "protocol": "PKD inhibitor CRT0066101 was dissolved in water (10 mg/kg) and administered orally to the mice by daily gavage, while the control mice were gavaged with water. Mice were maintained on the specified diets and had ab libitum access to food and water. C57BL/6 mice were administered CRT inhibitor treatment at 4-weeks of age, while for the rescue experiment, inhibitor was given under the same circumstances but treatment started only after 7 weeks of HFD feeding. Intestinal barrier permeability was further assessed 1 hour after oral gavage of FITC-Dextran 4.\nProteins from tissues and cell culture were extracted with RIPA buffer supplemented with phosphatase and protease inhibitor (PPI, Thermo Fisher Scientific). Protein concentration was measured by Pierce™ BCA Protein Assay Kit (Thermo Fisher Scientific) following the manufacturer's protocol. Reduced protein extracts were separated on 10% SDS-PAGE gels by electrophoresis and transferred to PVDF membranes under wet transfer. Membranes were blocked in 5% (w/v) milk in TBS-T before overnight probing with indicated primary antibodies at 4° C., followed by TBS-T washes and incubation with corresponding secondary antibody."}}, "data": [{"compound": "CC[C@@H](N)CNc1ccnc(-c2cc(-c3cnn(C)c3)ccc2O)n1", "note": "[CRT0066101]", "values": [{"measurement": "PKD2-dependent phosphorylation of APOA4", "setting": "PKD2", "value": "abrogates PKD2-dependent phosphorylation"}, {"measurement": "lipid transport through the Caco2 monolayer", "setting": "Caco2 cells; 5 μM, vs DMSO, FIG. 8", "value": "significant reduction in lipid transport"}, {"measurement": "TG secretion (basolateral release of 14C-labeled fatty acids)", "setting": "Caco2 cells; Caco2 transwell, 3 and 5 μM, FIG. 6A", "value": "reduces TG secretion in a dose dependent manner"}, {"measurement": "glucose tolerance", "setting": "male C57BL/6 mice on HFD; 8 weeks after starting treatment, FIG. 7D", "value": "improved glucose tolerance"}, {"measurement": "insulin sensitivity", "setting": "male C57BL/6 mice on HFD; 10 weeks after starting treatment, FIG. 7E", "value": "improved"}, {"measurement": "weight gain", "setting": "male C57BL/6 mice on HFD; treatment started after 7 weeks HFD, HFD continued, vs water, FIG. 7A", "value": "significantly decreased weight gain"}, {"measurement": "obesity (fat depots, fat mass by NMR)", "setting": "male C57BL/6 mice on HFD; treatment started after 7 weeks HFD, FIG. 7B-C", "value": "less obesity"}, {"measurement": "reduction in PKD 1/2 activation", "setting": "PKD 1/2; pancreatic tumors", "value": 50, "unit": "%"}, {"measurement": "time of highest concentrations in pancreatic tumors", "setting": "PKD 1/2", "value": 2, "unit": "h"}, {"measurement": "PKD activity in liver or adipose tissue", "setting": "phosphorylated PKD2", "value": "no similar decrease was observed"}, {"measurement": "intestinal PKD activity (phosphorylated PKD2 in jejunum)", "setting": "phosphorylated PKD2; 13 weeks, FIG. 6C", "value": "attenuated"}]}]}
